Laboratory results: ChEMBL document CHEMBL5126504, “A gulose moiety contributes to the belomycin (BLM) disaccharide selective targeting to lung cancer cells” (Eur J Med Chem, 2021)

Assays:
A549 = test: Cytotoxicity against human A549 cells assessed as reduction in cell viability after 48 hrs by MTT assay; type: functional, cell-based; conditions: A549, 48 h
[1] = Selectivity index, ratio of IC50 for cytotoxicity against human BEAS-2B cells to IC50 for cytotoxicity against human A549 cells; type: toxicity, cell-based; conditions: BEAS-2B cells and A549 cells, read-out: Ratio IC50
[2] = Cytotoxicity against human BEAS-2B cells assessed as reduction in cell viability after 48 hrs by MTT assay; type: toxicity, cell-based
[3] = Drug uptake in human A549 cells overexpressing GLUT1 assessed as increase in fluorescence intensity at 25 uM measured after 1 hr by DAPI staining based confocal fluorescence microscopic analysis; type: ADME, cell-based; conditions: a549, 1 h
[4] = Drug uptake in human A549 cells overexpressing GLUT1 assessed as increase in fluorescence intensity at 25 uM measured after 1 hr at 37 degreeC by DAPI staining based confocal fluorescence microscopic analysis; type: ADME, cell-based; conditions: a549, 1 h

For `NC(=O)O[C@@H]1[C@H](O)[C@@H](O[C@H]2C(OCCCCCC(=O)Nc3ccn(C4OC(CO)C(O)C4(F)F)c(=O)n3)O[C@H](CO)[C@H](O)[C@H]2O)O[C@H](CO)[C@H]1O` (stereo partly drawn), the IC50 (A549) was 130 nM, the selectivity ratio [1] was 20 and the IC50 at 48 h [2] was 2600 nM.
For `CC(=O)OC[C@H]1OC(OCCCCCC(=O)Nc2ccn(C3OC(CO)C(O)C3(F)F)c(=O)n2)[C@@H](O)[C@@H](O)[C@@H]1O` (stereo partly drawn), the IC50 (A549) was 460 nM and the IC50 at 48 h [2] was 7780 nM.
With `CC[N+]1=C(/C=C/C=C/C=C2/N(CCCCCC(=O)NCCOCCOC3O[C@@H](CO)[C@@H](O)[C@H](O)[C@@H]3O[C@H]3O[C@H](CO)[C@@H](O)[C@H](OC(N)=O)[C@@H]3O)c3ccc(S(=O)(=O)O)cc3C2(C)C)C(C)(C)c2cc(S(=O)(=O)[O-])ccc21` (stereo partly drawn) the Drug uptake [3] was “Active”.
In the case of `CC[N+]1=C(/C=C/C=C/C=C2/N(CCCCCC(=O)NCCOCCOC3O[C@@H](CO)[C@H](O)[C@@H](O)[C@@H]3O[C@H]3O[C@H](CO)[C@@H](O)[C@H](OC(N)=O)[C@@H]3O)c3ccc(S(=O)(=O)O)cc3C2(C)C)C(C)(C)c2cc(S(=O)(=O)[O-])ccc21` (stereo partly drawn), the Drug uptake [4] is reported as “Active” and the Drug uptake [3] is reported as “Active”.
With `CC[N+]1=C(/C=C/C=C/C=C2/N(CCCCCC(=O)NCCOCCOC3O[C@H](CO)[C@H](O)[C@@H](O)[C@H]3O)c3ccc(S(=O)(=O)O)cc3C2(C)C)C(C)(C)c2cc(S(=O)(=O)[O-])ccc21` (stereo partly drawn) the Drug uptake [4] was “Active” and the Drug uptake [3] was “Active”.
`CC(=O)OC[C@H]1OC(OCCCCCC(=O)Nc2ccn(C3OC(CO)C(O)C3(F)F)c(=O)n2)[C@@H](O)[C@@H](OC(N)=O)[C@@H]1O` (stereo partly drawn) gave an IC50 (A549) of 920 nM and an IC50 at 48 h [2] of 7770 nM.
For `CC(=O)OC[C@H]1OC(OCCCCCC(=O)Nc2ccn(C3OC(CO)C(O)C3(F)F)c(=O)n2)[C@H](O)[C@H](O)[C@H]1O` (stereo partly drawn), the IC50 (A549) was 260 nM, the selectivity ratio [1] was 20.9 and the IC50 at 48 h [2] was 5430 nM.
With `Nc1ccn([C@@H]2O[C@H](CO)[C@@H](O)C2(F)F)c(=O)n1` [GEMCITABINE] the IC50 (A549) was 44 nM, the selectivity ratio [1] was 0.88 and the IC50 at 48 h [2] was 37 nM.
